Data as given in PubChem BioAssay AID248 (DTP/NCI, 2004).
“And” between values parts separate entries of the source, which are not always exact repeats. Equal entries are not always repeated. Inconclusive results and toxic doses are left out. Cut-off read from the data, not from the text of the source: active = T/C of 150% or more; inactive = T/C below 125%. Peptide text beside a SMILES is read from it. * marks the point of attachment. Boc = CC(C)(C)OC(=O)*; Bn = c1ccc(C*)cc1

Tested on: L1210 leukemia ip in BDF1 mice, survival T/C
Assay: NCI In Vivo Anticancer Drug Screen. Data for tumor model L1210 Leukemia (intraperitoneal) in B6D2F1 (BDF1) mice
Details: endpoint: mean survival time, higher = longer survival
Summary of the method: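 Ratio derived from survival: compound-dosed mice over vehicle-dosed mice, all bearing a transplantable tumor.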

[1] = dose: 100.0 mg/kg/injection, schedule: Q01DX009 (ip), vehicle: saline
[2] = dose: 100.0 mg/kg/injection, schedule: Q04DX003 (ip), vehicle: saline
[3] = dose: 200.0 mg/kg/injection, schedule: Q01DX009 (ip), vehicle: saline
[4] = dose: 200.0 mg/kg/injection, schedule: Q04DX003 (ip), vehicle: saline
[5] = dose: 400.0 mg/kg/injection, schedule: Q01DX009 (ip), vehicle: saline
[6] = dose: 400.0 mg/kg/injection, schedule: Q04DX003 (ip), vehicle: saline
[7] = dose: 50.0 mg/kg/injection, schedule: Q01DX009 (ip), vehicle: saline with Tween-80
[8] = dose: 50.0 mg/kg/injection, schedule: Q04DX003 (ip), vehicle: saline with Tween-80
[9] = dose: 100.0 mg/kg/injection, schedule: Q01DX009 (ip), vehicle: saline with Tween-80
[10] = dose: 100.0 mg/kg/injection, schedule: Q04DX003 (ip), vehicle: saline with Tween-80
[11] = dose: 75.0 mg/kg/injection, schedule: Q01DX001 (ip), vehicle: saline
[12] = dose: 150.0 mg/kg/injection, schedule: Q01DX001 (ip), vehicle: saline
[13] = dose: 100.0 mg/kg/injection, schedule: Q01DX009 (ip), vehicle: Klucel (hydroxypropylcellulose) (HPC)
[14] = dose: 200.0 mg/kg/injection, schedule: Q01DX009 (ip), vehicle: Klucel (hydroxypropylcellulose) (HPC)
[15] = dose: 400.0 mg/kg/injection, schedule: Q01DX009 (ip), vehicle: Klucel (hydroxypropylcellulose) (HPC)
[16] = dose: 200.0 mg/kg/injection, schedule: Q04DX003 (ip), vehicle: saline with Tween-80
[17] = dose: 400.0 mg/kg/injection, schedule: Q04DX003 (ip), vehicle: saline with Tween-80
[18] = dose: 200.0 mg/kg/injection, schedule: Q01DX009 (ip), vehicle: saline with Tween-80
[19] = dose: 100.0 mg/kg/injection, schedule: Q01DX001 (ip), vehicle: saline
[20] = dose: 200.0 mg/kg/injection, schedule: Q01DX001 (ip), vehicle: saline
[21] = dose: 400.0 mg/kg/injection, schedule: Q01DX001 (ip), vehicle: saline
[22] = dose: 100.0 mg/kg/injection, schedule: Q04DX002 (ip), vehicle: Klucel (hydroxypropylcellulose) (HPC)
[23] = dose: 200.0 mg/kg/injection, schedule: Q04DX002 (ip), vehicle: Klucel (hydroxypropylcellulose) (HPC)
[24] = dose: 400.0 mg/kg/injection, schedule: Q04DX002 (ip), vehicle: Klucel (hydroxypropylcellulose) (HPC)
[25] = dose: 100.0 mg/kg/injection, schedule: Q01DX001 (ip), vehicle: carboxymethylcellulose (CMC)
[26] = dose: 200.0 mg/kg/injection, schedule: Q01DX001 (ip), vehicle: carboxymethylcellulose (CMC)
[27] = dose: 400.0 mg/kg/injection, schedule: Q01DX001 (ip), vehicle: carboxymethylcellulose (CMC)
[28] = dose: 100.0 mg/kg/injection, schedule: Q04DX002 (ip), vehicle: carboxymethylcellulose (CMC)
[29] = dose: 100.0 mg/kg/injection, schedule: Q04DX003 (ip), vehicle: carboxymethylcellulose (CMC)
[30] = dose: 200.0 mg/kg/injection, schedule: Q04DX002 (ip), vehicle: carboxymethylcellulose (CMC)
[31] = dose: 200.0 mg/kg/injection, schedule: Q04DX003 (ip), vehicle: carboxymethylcellulose (CMC)
[32] = dose: 400.0 mg/kg/injection, schedule: Q04DX002 (ip), vehicle: carboxymethylcellulose (CMC)
[33] = dose: 400.0 mg/kg/injection, schedule: Q04DX003 (ip), vehicle: carboxymethylcellulose (CMC)

Measured: T/C

CCOC(=O)c1c(N)ssc1=S
inactive: [1] 100 % of control | [2] 102 % of control | [3] 105 % of control | [4] 105 % of control | [5] 105 % of control | [6] 107 % of control

CCCCCCC1N(C)CCCN1C
inactive: dose: 25.0 mg/kg/injection, schedule: Q01DX009 (ip), vehicle: saline with Tween-80 98 % of control | dose: 25.0 mg/kg/injection, schedule: Q04DX003 (ip), vehicle: saline with Tween-80 100 % of control | [7] 94 % of control | [8] 98 % of control | [9] 86 % of control | [10] 100 % of control and 103 % of control

O=C(O)c1c(Cl)c(Cl)cc(Cl)c1Cl
inactive: [11] 93 % of control | [12] 93 % of control | dose: 300.0 mg/kg/injection, schedule: Q01DX001 (ip), vehicle: saline 96 % of control

Nc1ccc2[nH]c3ccccc3c2c1
inactive: [13] 95 % of control | dose: 100.0 mg/kg/injection, schedule: Q04DX003 (ip), vehicle: Klucel (hydroxypropylcellulose) (HPC) 104 % of control | [14] 95 % of control | dose: 200.0 mg/kg/injection, schedule: Q04DX003 (ip), vehicle: Klucel (hydroxypropylcellulose) (HPC) 91 % of control | [15] 92 % of control | dose: 400.0 mg/kg/injection, schedule: Q04DX003 (ip), vehicle: Klucel (hydroxypropylcellulose) (HPC) 94 % of control

CCOC(=O)c1ccc(OC2CCCCO2)c(OC2CCCCO2)c1 (stereo unspecified)
inactive: [10] 98 % of control | [16] 98 % of control | [17] 98 % of control

COC(=O)CNC(=O)C(Cc1ccc(OCc2ccccc2)cc1)NC(=O)C(CO)NC(=O)OC(C)(C)C (stereo not drawn) (Boc-Ser-Tyr(Bn)-Gly-OMe; configuration not given here)
inactive: [9] 102 % of control | [18] 98 % of control | dose: 400.0 mg/kg/injection, schedule: Q01DX009 (ip), vehicle: saline with Tween-80 88 % of control

CC1=NN(c2cccc(Cl)c2)C(=O)C1
inactive: [8] 105 % of control | [9] 93 % of control | [10] 94 % of control | [18] 106 % of control | [16] 96 % of control and 92 % of control | [17] 94 % of control

O=S(=O)(F)c1c(Cl)cccc1C[P+](c1ccccc1)(c1ccccc1)c1ccccc1
inactive: dose: 6.25 mg/kg/injection, schedule: Q01DX001 (ip), vehicle: saline with Tween-80 99 % of control | dose: 12.5 mg/kg/injection, schedule: Q01DX001 (ip), vehicle: saline with Tween-80 100 % of control | dose: 25.0 mg/kg/injection, schedule: Q01DX001 (ip), vehicle: saline 105 % of control

NNC(=O)CCCCCC(=O)NN
inactive: [1] 93 % of control | [2] 94 % of control | [3] 95 % of control | [4] 96 % of control | [5] 106 % of control | [6] 102 % of control

O=P(Oc1ccccc1)(Oc1ccccc1)Oc1ccccc1Cl
inactive: [19] 96 % of control | [20] 102 % of control | [21] 97 % of control

CCCCCOC(=O)c1cccc2c1-c1ccccc1C2=O
inactive: dose: 100.0 mg/kg/injection, schedule: Q01DX001 (ip), vehicle: other 93 % of control | dose: 200.0 mg/kg/injection, schedule: Q01DX001 (ip), vehicle: other 98 % of control | dose: 400.0 mg/kg/injection, schedule: Q01DX001 (ip), vehicle: other 93 % of control

c1coc(CNCNCc2ccco2)c1
inactive: dose: 155.0 mg/kg/injection, schedule: Q01DX Z (ip), vehicle: methylcellulose (MC) 94 % of control | dose: 233.0 mg/kg/injection, schedule: Q01DX Z (ip), vehicle: methylcellulose (MC) 105 % of control | dose: 350.0 mg/kg/injection, schedule: Q01DX Z (ip), vehicle: methylcellulose (MC) 100 % of control

CCOC(=O)c1ccc(NC(=S)Nc2ccccc2)cc1N(CC)CC
inactive: [13] 101 % of control | [14] 97 % of control | [15] 104 % of control

Nc1ccc(C(=O)O)c(F)c1
inactive: [22] 101 % of control | [23] 104 % of control | [24] 101 % of control

Cn1c(=O)c2c(nc(C3CC=CCC3)n2C)n(C)c1=O (stereo unspecified)
inactive: dose: 50.0 mg/kg/injection, schedule: Q01DX001 (ip), vehicle: other 98 % of control

CS/C(N)=N\N=C\c1ccccn1
inactive: dose: 12.5 mg/kg/injection, schedule: Q01DX001 (ip), vehicle: carboxymethylcellulose (CMC) 104 % of control | dose: 25.0 mg/kg/injection, schedule: Q01DX001 (ip), vehicle: carboxymethylcellulose (CMC) 103 % of control

COc1cc2c(cc1OC)-c1oncc1CCC2
inactive: [25] 95 % of control | [26] 106 % of control | [27] 88 % of control

C1=Nc2ccccc2/C1=C/c1ccc2c(c1)OCO2
inactive: dose: 100.0 mg/kg/injection, schedule: Q01DX009 (ip), vehicle: carboxymethylcellulose (CMC) 97 % of control and 102 % of control | [28] 93 % of control and 102 % of control | [29] 98 % of control | dose: 200.0 mg/kg/injection, schedule: Q01DX009 (ip), vehicle: carboxymethylcellulose (CMC) 96 % of control and 87 % of control | [30] 93 % of control and 98 % of control | [31] 93 % of control | dose: 400.0 mg/kg/injection, schedule: Q01DX009 (ip), vehicle: carboxymethylcellulose (CMC) 93 % of control and 94 % of control | [32] 104 % of control and 107 % of control | [33] 96 % of control

CC(=O)C(C#N)c1c(C)cc(C)cc1C (stereo unspecified)
inactive: dose: 37.5 mg/kg/injection, schedule: Q04DX003 (ip), vehicle: saline 97 % of control | [11] 97 % of control | dose: 75.0 mg/kg/injection, schedule: Q04DX003 (ip), vehicle: saline 92 % of control | [12] 105 % of control | dose: 150.0 mg/kg/injection, schedule: Q04DX003 (ip), vehicle: saline 96 % of control

O=C1CNc2ccc(Cl)cc2N1
inactive: dose: 100.0 mg/kg/injection, schedule: Q04DX003 (ip), vehicle: acetone 92 % of control | dose: 200.0 mg/kg/injection, schedule: Q04DX003 (ip), vehicle: acetone 95 % of control | dose: 400.0 mg/kg/injection, schedule: Q04DX003 (ip), vehicle: acetone 88 % of control

O=C1CCCC/C1=C/c1ccco1
inactive: [22] 95 % of control | [23] 99 % of control | [24] 99 % of control

O=C(CNC(=O)Nc1nccs1)NNC(=O)Nc1cccc(C(F)(F)F)c1
inactive: [7] 94 % of control | [9] 105 % of control | [18] 102 % of control

COc1ccc(OC)c(NC(=O)Oc2cc(C)c(Cl)c(C)c2)c1
inactive: dose: 100.0 mg/kg/injection, schedule: Q04DX002 (ip), vehicle: saline with Tween-80 93 % of control | dose: 200.0 mg/kg/injection, schedule: Q04DX002 (ip), vehicle: saline with Tween-80 96 % of control | dose: 400.0 mg/kg/injection, schedule: Q04DX002 (ip), vehicle: saline with Tween-80 101 % of control

NCCN1C(=O)C2C3CCC(O3)C2C1=O (stereo unspecified)
inactive: [25] 97 % of control and 107 % of control | [28] 97 % of control and 88 % of control | [29] 101 % of control and 112 % of control | [26] 97 % of control and 104 % of control | [30] 93 % of control and 94 % of control | [31] 104 % of control and 105 % of control | [27] 96 % of control and 103 % of control | [32] 108 % of control and 88 % of control | [33] 96 % of control and 100 % of control

COC(=O)OCC1OC(OC(C)=O)C2OC(=O)OC12 (stereo unspecified)
inactive: [19] 97 % of control | [20] 97 % of control | [21] 97 % of control
